Measured values: the supplement of paper PMC8617591

Columns and labels:
[1] = system: Mycobacterium tuberculosis Erdman (autoluminescent); assay: FIC90 (Loewe) at 90% inhibition (log2); higher = more antagonistic
Procedure: (§1)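 DiaMOND equipotent two-drug combination dose responses against autoluminescent M. tuberculosis Erdman in 8 in vitro models. Read-out is OD600, or luminescence for the intracellular and dormancy models, normalised to untreated wells. Hill-fit Einf, AUC25 and GRinf are potency metrics; FIC50 and FIC90 are Loewe-additivity fractional inhibitory concentrations, given as log2 (negative = synergy). Replicates are averaged.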

[2] = system: Mycobacterium tuberculosis Erdman (autoluminescent); assay: FIC50 (Loewe) at 50% inhibition (log2); higher = more antagonistic
Procedure: as §1

[3] = system: Mycobacterium tuberculosis Erdman (autoluminescent); assay: Einf, fitted maximum growth inhibition of combination (fraction); higher = stronger maximal inhibition
Procedure: as §1

[4] = system: Mycobacterium tuberculosis Erdman (autoluminescent); assay: AUC25, normalised area under dose response up to IC25 (fraction (0-1)); higher = more potent at low dose
Procedure: as §1

[5] = system: Mycobacterium tuberculosis Erdman (autoluminescent); assay: GRinf, maximum normalised growth rate inhibition (unitless (-1 to 1)); higher = less effect (negative = killing)
Procedure: as §1

COc1nc2ccc(Br)cc2cc1[C@@H](c1ccccc1)[C@@](O)(CCN(C)C)c1cccc2ccccc12 [bedaquiline] + CO[C@H]1/C=C/O[C@@]2(C)Oc3c(C)c(O)c4c(O)c(c(/C=N/N5CCN(C6CCCC6)CC5)c(O)c4c3C2=O)NC(=O)/C(C)=C\C=C\[C@H](C)[C@H](O)[C@@H](C)[C@@H](O)[C@@H](C)[C@H](OC(C)=O)[C@@H]1C [rifapentine]
Settings | AUC25, [4] | Einf, [3] | FIC50, [2] | FIC90, [1] | GRinf, [5]
in vitro model: acidic pH 5.7, time point: constant (~7 days, model-specific) | 0.0995 | 0.969 | 0.322 | 0.172 | -0.693
in vitro model: acidic pH 5.7, time point: terminal (~4-5 doublings, model-specific) | 0.0881 | 0.998 | 0.392 | 0.396 | -0.38
in vitro model: intracellular J774, time point: constant = terminal | – | 0.943 | – | 0.658 | -0.214

Settings | AUC25, [4] | Einf, [3] | FIC50, [2] | FIC90, [1] | GRinf, [5]
in vitro model: butyrate, time point: constant (~7 days, model-specific) | 0.0889 | 0.933 | 0.485 | 0.365 | -0.0857
in vitro model: butyrate, time point: terminal (~4-5 doublings, model-specific) | 0.0717 | 0.976 | 0.482 | 0.362 | -0.102
in vitro model: cholesterol 0.05 mM, time point: constant (~7 days, model-specific) | 0.119 | 0.787 | 0.249 | – | -0.201
in vitro model: cholesterol 0.05 mM, time point: terminal (~4-5 doublings, model-specific) | 0.0716 | 0.93 | 0.341 | 0.609 | -0.223
in vitro model: cholesterol-high 0.2 mM, time point: constant (~7 days, model-specific) | 0.0555 | 0.969 | 0.211 | -0.159 | -0.659
in vitro model: cholesterol-high 0.2 mM, time point: terminal (~4-5 doublings, model-specific) | 0.0435 | 1 | 0.367 | 0.259 | -0.615
in vitro model: dormancy (butyrate + nitrate, low O2), time point: constant (~7 days, model-specific) | 0.072 | 0.941 | 0.549 | 1 | 0.16
in vitro model: dormancy (butyrate + nitrate, low O2), time point: terminal (~4-5 doublings, model-specific) | 0.0609 | 0.981 | 0.481 | 0.635 | -0.111
in vitro model: standard 7H9 glycerol, time point: constant = terminal | 0.0637 | 0.949 | 0.236 | 0.112 | -0.0779
in vitro model: valerate, time point: constant (~7 days, model-specific) | 0.0652 | 0.899 | 0.621 | – | -0.0573
in vitro model: valerate, time point: terminal (~4-5 doublings, model-specific) | 0.0336 | 0.955 | 0.678 | 0.464 | -0.0667
